According to patent US11445724B2, “Insecticidal compounds” (SYNGENTA PARTICIPATIONS AG, priority 2013, dated 2022):

Legend:
Assay type in all cases: in vivo
[1] = test system: Myzus persicae (Green peach aphid); assay: Myzus persicae (Green peach aphid) mortality, test compounds mixed with Sucrose solution under Parafilm; details: 120 h, 12.5 ppm in Sucrose solution, infested pea seedlings on Parafilm, mortality 5 days after infestation
[2] = test system: Thrips tabaci (Onion thrips); assay: Thrips tabaci (Onion thrips) mortality, sprayed sunflower leaf discs; details: foliar, 168 h, 200 ppm spray on sunflower leaf discs, mixed ages, mortality after 7 days
[3] = test system: Plutella xylostella (Diamond back moth); assay: Plutella xylostella (Diamond back moth) larval mortality, artificial diet in 24-well MTP; details: 144 h, application rate 200 ppm (concentration in well 18 ppm), L2 larvae, larval mortality after 6 days
[4] = test system: Myzus persicae (Green peach aphid); assay: Myzus persicae (Green peach aphid) mortality, sprayed sunflower leaf discs; details: foliar, 144 h, 200 ppm spray on sunflower leaf discs, mixed ages, mortality 6 DAT
[5] = test system: Tetranychus urticae (Two-spotted spider mite); assay: Tetranychus urticae (Two-spotted spider mite) mortality, sprayed bean leaf discs; details: foliar, 192 h, 200 ppm spray on bean leaf discs, mixed ages, egg, larval and adult mortality after 8 days
[6] = test system: Spodoptera littoralis (Egyptian cotton leafworm); assay: Spodoptera littoralis (Egyptian cotton leafworm) mortality, sprayed cotton leaf discs; details: foliar, 72 h, 200 ppm spray on cotton leaf discs, L1 larvae, mortality 3 DAT
[7] = test system: Diabrotica balteata (Corn root worm); assay: Diabrotica balteata (Corn root worm) larval mortality, artificial diet in 24-well MTP; details: 120 h, application rate 200 ppm (concentration in well 18 ppm), L2 larvae, larval mortality after 5 days

CCN(C(=O)c1ccc(F)cc1)c1cccc(C(=O)Nc2c(Cl)cc(C(F)(C(F)(F)F)C(F)(F)F)cc2OC(F)F)c1F [Compound 120]
≥ 80%: pest or weed control at 12.5 ppm [1] | pest or weed control at 200 ppm [2] | pest or weed control at 200 ppm [3] | pest or weed control at 200 ppm [4] | pest or weed control at 200 ppm [5] | pest or weed control at 200 ppm [6] | pest or weed control at 200 ppm [7]

O=C(Nc1cccc(C(=O)Nc2c(Br)cc(C(F)(C(F)(F)F)C(F)(F)F)cc2OC(F)F)c1F)c1ccccc1F [Compound 83]
≥ 80%: pest or weed control at 12.5 ppm [1] | pest or weed control at 200 ppm [2] | pest or weed control at 200 ppm [3] | pest or weed control at 200 ppm [4] | pest or weed control at 200 ppm [5] | pest or weed control at 200 ppm [6] | pest or weed control at 200 ppm [7]

CCN(C(=O)c1ccncc1)c1cccc(C(=O)Nc2c(Cl)cc(C(F)(C(F)(F)F)C(F)(F)F)cc2OC(F)F)c1F [Compound 19]
≥ 80%: pest or weed control at 12.5 ppm [1] | pest or weed control at 200 ppm [2] | pest or weed control at 200 ppm [3] | pest or weed control at 200 ppm [4] | pest or weed control at 200 ppm [5] | pest or weed control at 200 ppm [6] | pest or weed control at 200 ppm [7]

CCN(C(=O)c1ccc(F)cc1Cl)c1cccc(C(=O)Nc2c(Br)cc(C(F)(C(F)(F)F)C(F)(F)F)cc2OC(F)F)c1OC [Compound 141]
≥ 80%: pest or weed control at 12.5 ppm [1] | pest or weed control at 200 ppm [2] | pest or weed control at 200 ppm [3] | pest or weed control at 200 ppm [4] | pest or weed control at 200 ppm [5] | pest or weed control at 200 ppm [6] | pest or weed control at 200 ppm [7]

CCN(C(=O)c1ccc([N+](=O)[O-])cc1)c1cccc(C(=O)Nc2c(Br)cc(C(F)(C(F)(F)F)C(F)(F)F)cc2OC(F)F)c1OC [Compound 162]
≥ 80%: pest or weed control at 12.5 ppm [1] | pest or weed control at 200 ppm [2] | pest or weed control at 200 ppm [3] | pest or weed control at 200 ppm [4] | pest or weed control at 200 ppm [5] | pest or weed control at 200 ppm [6] | pest or weed control at 200 ppm [7]

Cc1ccc(C(=O)Nc2cccc(C(=O)Nc3c(Cl)cc(C(F)(C(F)(F)F)C(F)(F)F)cc3OC(F)F)c2F)cc1 [Compound 51]
≥ 80%: pest or weed control at 12.5 ppm [1] | pest or weed control at 200 ppm [2] | pest or weed control at 200 ppm [3] | pest or weed control at 200 ppm [4] | pest or weed control at 200 ppm [5] | pest or weed control at 200 ppm [6] | pest or weed control at 200 ppm [7]

CCN(C(=O)c1ccc(F)cc1F)c1cccc(C(=O)Nc2c(Br)cc(C(F)(C(F)(F)F)C(F)(F)F)cc2OC(F)F)c1F [Compound 109]
≥ 80%: pest or weed control at 12.5 ppm [1] | pest or weed control at 200 ppm [2] | pest or weed control at 200 ppm [3] | pest or weed control at 200 ppm [4] | pest or weed control at 200 ppm [5] | pest or weed control at 200 ppm [6] | pest or weed control at 200 ppm [7]

CCN(C(=O)c1ccccc1)c1cccc(C(=O)Nc2c(Cl)cc(C(F)(C(F)(F)F)C(F)(F)F)cc2OC(F)F)c1F [Compound 119]
≥ 80%: pest or weed control at 12.5 ppm [1] | pest or weed control at 200 ppm [2] | pest or weed control at 200 ppm [3] | pest or weed control at 200 ppm [4] | pest or weed control at 200 ppm [5] | pest or weed control at 200 ppm [6] | pest or weed control at 200 ppm [7]

O=C(Nc1cccc(C(=O)Nc2c(Br)cc(C(F)(C(F)(F)F)C(F)(F)F)cc2OC(F)F)c1F)c1ccccc1 [Compound 31]
≥ 80%: pest or weed control at 12.5 ppm [1] | pest or weed control at 200 ppm [2] | pest or weed control at 200 ppm [3] | pest or weed control at 200 ppm [4] | pest or weed control at 200 ppm [5] | pest or weed control at 200 ppm [6] | pest or weed control at 200 ppm [7]

O=C(Nc1cccc(C(=O)Nc2c(Br)cc(C(F)(C(F)(F)F)C(F)(F)F)cc2OC(F)F)c1F)c1ccc(F)cc1Cl [Compound 36]
≥ 80%: pest or weed control at 12.5 ppm [1] | pest or weed control at 200 ppm [2] | pest or weed control at 200 ppm [3] | pest or weed control at 200 ppm [4] | pest or weed control at 200 ppm [5] | pest or weed control at 200 ppm [6] | pest or weed control at 200 ppm [7]

CCN(C(=O)c1ccncc1)c1cccc(C(=O)Nc2c(Cl)cc(C(F)(C(F)(F)F)C(F)(F)F)cc2OC(F)F)c1OC [Compound 20]
≥ 80%: pest or weed control at 12.5 ppm [1] | pest or weed control at 200 ppm [2] | pest or weed control at 200 ppm [3] | pest or weed control at 200 ppm [4] | pest or weed control at 200 ppm [5] | pest or weed control at 200 ppm [6] | pest or weed control at 200 ppm [7]

Cc1cc(C(F)(C(F)(F)F)C(F)(F)F)cc(OC(F)F)c1NC(=O)c1cccc(NC(=O)c2ccncc2)c1F [Compound 100]
≥ 80%: pest or weed control at 12.5 ppm [1] | pest or weed control at 200 ppm [2] | pest or weed control at 200 ppm [3] | pest or weed control at 200 ppm [4] | pest or weed control at 200 ppm [5] | pest or weed control at 200 ppm [6] | pest or weed control at 200 ppm [7]

O=C(Nc1cccc(C(=O)Nc2c(Cl)cc(C(F)(C(F)(F)F)C(F)(F)F)cc2OC(F)F)c1F)c1ccc(F)cc1 [Compound 70]
≥ 80%: pest or weed control at 12.5 ppm [1] | pest or weed control at 200 ppm [2] | pest or weed control at 200 ppm [3] | pest or weed control at 200 ppm [4] | pest or weed control at 200 ppm [5] | pest or weed control at 200 ppm [6] | pest or weed control at 200 ppm [7]

N#Cc1ccc(C(=O)Nc2cccc(C(=O)Nc3c(Br)cc(C(F)(C(F)(F)F)C(F)(F)F)cc3OC(F)F)c2F)cc1 [Compound 5]
≥ 80%: pest or weed control at 12.5 ppm [1] | pest or weed control at 200 ppm [2] | pest or weed control at 200 ppm [3] | pest or weed control at 200 ppm [4] | pest or weed control at 200 ppm [5] | pest or weed control at 200 ppm [6] | pest or weed control at 200 ppm [7]

O=C(Nc1cccc(C(=O)Nc2c(Br)cc(C(F)(C(F)(F)F)C(F)(F)F)cc2OC(F)F)c1F)c1ccc(F)cc1F [Compound 40]
≥ 80%: pest or weed control at 12.5 ppm [1] | pest or weed control at 200 ppm [2] | pest or weed control at 200 ppm [3] | pest or weed control at 200 ppm [4] | pest or weed control at 200 ppm [5] | pest or weed control at 200 ppm [6] | pest or weed control at 200 ppm [7]

O=C(Nc1cccc(C(=O)Nc2c(Cl)cc(C(F)(C(F)(F)F)C(F)(F)F)cc2OC(F)F)c1F)c1ccc([N+](=O)[O-])cc1Cl [Compound 57]
≥ 80%: pest or weed control at 12.5 ppm [1] | pest or weed control at 200 ppm [2] | pest or weed control at 200 ppm [3] | pest or weed control at 200 ppm [4] | pest or weed control at 200 ppm [5] | pest or weed control at 200 ppm [6] | pest or weed control at 200 ppm [7]

COc1c(NC(=O)c2ccc(F)cc2Cl)cccc1C(=O)Nc1c(Br)cc(C(F)(C(F)(F)F)C(F)(F)F)cc1OC(F)F [Compound 66]
≥ 80%: pest or weed control at 12.5 ppm [1] | pest or weed control at 200 ppm [2] | pest or weed control at 200 ppm [3] | pest or weed control at 200 ppm [4] | pest or weed control at 200 ppm [5] | pest or weed control at 200 ppm [6] | pest or weed control at 200 ppm [7]

CCN(C(=O)c1ccc(F)cc1)c1cccc(C(=O)Nc2c(Cl)cc(C(F)(C(F)(F)F)C(F)(F)F)cc2OC(F)F)c1OC [Compound 156]
≥ 80%: pest or weed control at 12.5 ppm [1] | pest or weed control at 200 ppm [2] | pest or weed control at 200 ppm [3] | pest or weed control at 200 ppm [4] | pest or weed control at 200 ppm [5] | pest or weed control at 200 ppm [6] | pest or weed control at 200 ppm [7]

O=C(Nc1cccc(C(=O)Nc2c(Br)cc(C(F)(C(F)(F)F)C(F)(F)F)cc2OC(F)F)c1F)c1cccc(F)c1F [Compound 38]
≥ 80%: pest or weed control at 12.5 ppm [1] | pest or weed control at 200 ppm [2] | pest or weed control at 200 ppm [3] | pest or weed control at 200 ppm [4] | pest or weed control at 200 ppm [5] | pest or weed control at 200 ppm [6] | pest or weed control at 200 ppm [7]

CCN(C(=O)c1ccc(C#N)cc1)c1cccc(C(=O)Nc2c(Cl)cc(C(F)(C(F)(F)F)C(F)(F)F)cc2OC(F)F)c1F [Compound 17]
≥ 80%: pest or weed control at 12.5 ppm [1] | pest or weed control at 200 ppm [2] | pest or weed control at 200 ppm [3] | pest or weed control at 200 ppm [4] | pest or weed control at 200 ppm [5] | pest or weed control at 200 ppm [6] | pest or weed control at 200 ppm [7]

COc1c(NC(=O)c2ccc([N+](=O)[O-])cc2Cl)cccc1C(=O)Nc1c(Br)cc(C(F)(C(F)(F)F)C(F)(F)F)cc1OC(F)F [Compound 47]
≥ 80%: pest or weed control at 12.5 ppm [1] | pest or weed control at 200 ppm [2] | pest or weed control at 200 ppm [3] | pest or weed control at 200 ppm [4] | pest or weed control at 200 ppm [5] | pest or weed control at 200 ppm [6] | pest or weed control at 200 ppm [7]

CCN(C(=O)c1ccc(F)cc1)c1cccc(C(=O)Nc2c(Br)cc(C(F)(C(F)(F)F)C(F)(F)F)cc2OC(F)F)c1OC [Compound 139]
≥ 80%: pest or weed control at 12.5 ppm [1] | pest or weed control at 200 ppm [2] | pest or weed control at 200 ppm [3] | pest or weed control at 200 ppm [4] | pest or weed control at 200 ppm [5] | pest or weed control at 200 ppm [6] | pest or weed control at 200 ppm [7]

CCN(C(=O)c1ccc(C#N)cc1)c1cccc(C(=O)Nc2c(Br)cc(C(F)(C(F)(F)F)C(F)(F)F)cc2OC(F)F)c1OC [Compound 9]
≥ 80%: pest or weed control at 12.5 ppm [1] | pest or weed control at 200 ppm [2] | pest or weed control at 200 ppm [3] | pest or weed control at 200 ppm [4] | pest or weed control at 200 ppm [5] | pest or weed control at 200 ppm [6] | pest or weed control at 200 ppm [7]

O=C(Nc1cccc(C(=O)Nc2c(Cl)cc(C(F)(C(F)(F)F)C(F)(F)F)cc2OC(F)F)c1F)c1cccc(F)c1F [Compound 76]
≥ 80%: pest or weed control at 12.5 ppm [1] | pest or weed control at 200 ppm [2] | pest or weed control at 200 ppm [3] | pest or weed control at 200 ppm [4] | pest or weed control at 200 ppm [5] | pest or weed control at 200 ppm [6] | pest or weed control at 200 ppm [7]
